Assay results from ChEMBL document CHEMBL3797145, “Synthesis and evaluation of carbamate and aryl ether substituted pyrazinones as corticotropin releasing factor-1 (CRF₁) receptor antagonists” (Bioorg Med Chem Lett, 2016).
pIC50: −log10 of the molar value.

Assays:
[1] = Metabolic stability in human liver microsomes assessed as compound remaining after 10 mins; format: ADME; conditions: read-out: Stability
[2] = target: T1, Corticotropin-releasing factor receptor 1 (Homo sapiens, UniProt P34998); experiment: (§1) Antagonist activity at CRF1 receptor in human Y79 cells assessed as inhibition of CRF-stimulated cAMP production preincubated for 30 mins followed by CRF addition measured after 30 mins by HTRF assay; format: functional, cell-based
T1 sequence (P34998 whole entry): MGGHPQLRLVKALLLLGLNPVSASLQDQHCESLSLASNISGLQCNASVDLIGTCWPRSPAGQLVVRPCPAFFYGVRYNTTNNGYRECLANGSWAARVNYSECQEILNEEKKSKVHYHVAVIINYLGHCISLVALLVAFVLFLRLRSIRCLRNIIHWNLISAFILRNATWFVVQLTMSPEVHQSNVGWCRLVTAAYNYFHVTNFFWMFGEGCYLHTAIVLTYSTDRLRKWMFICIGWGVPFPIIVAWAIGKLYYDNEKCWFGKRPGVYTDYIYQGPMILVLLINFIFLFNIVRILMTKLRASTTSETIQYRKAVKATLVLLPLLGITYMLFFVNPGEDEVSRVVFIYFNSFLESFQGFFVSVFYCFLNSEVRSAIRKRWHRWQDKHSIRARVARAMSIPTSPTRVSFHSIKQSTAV

[3] = target: T2, Corticotropin-releasing factor receptor 1 (Homo sapiens) (UniProt P34998); experiment: as §1; format: functional, cell-based
T2 sequence (whole entry): T1 sequence (P34998 whole entry)

[4] = Metabolic stability in rat liver microsomes assessed as compound remaining after 10 mins; format: ADME; conditions: read-out: Stability
[5] = target: T3, Corticotropin-releasing factor receptor 1 (Rattus norvegicus, UniProt P35353); experiment: Displacement of [125I]Tyr-ovine-CRF from CRF1 receptor in rat frontal cortex homogenate after 2 hrs by gamma counting analysis; format: tissue-based
T3 sequence (P35353 whole entry): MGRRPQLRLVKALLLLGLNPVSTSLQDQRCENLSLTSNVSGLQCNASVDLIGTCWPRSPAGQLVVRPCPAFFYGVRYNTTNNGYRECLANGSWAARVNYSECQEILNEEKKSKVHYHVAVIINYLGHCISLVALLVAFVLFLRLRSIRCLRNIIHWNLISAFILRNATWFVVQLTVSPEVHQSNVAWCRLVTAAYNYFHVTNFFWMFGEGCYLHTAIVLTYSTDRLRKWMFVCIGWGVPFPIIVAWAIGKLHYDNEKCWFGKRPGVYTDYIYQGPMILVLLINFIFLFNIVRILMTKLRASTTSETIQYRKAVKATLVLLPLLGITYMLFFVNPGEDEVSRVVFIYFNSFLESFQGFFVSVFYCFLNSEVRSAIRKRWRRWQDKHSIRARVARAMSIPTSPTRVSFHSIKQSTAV

SMILES	pIC50 [5]	further results
Cc1cc(Nc2nc(Cl)cn([C@H](COC(=O)Nc3ccccc3)C3CC3)c2=O)c(C)nc1OC(F)F		remaining at 10 min [1]: 77%; pIC50 [2]: 8.92; inhibition [3]: Dose-dependent effect; remaining at 10 min [4]: 75%
COc1nc(C)c(Nc2nc(Cl)cn([C@H](COc3cccnc3)C3CC3)c2=O)cc1C	8.17	
COc1nc(C)c(Nc2nc(Cl)cn([C@H](COc3ccccn3)C3CC3)c2=O)cc1C	8.92	
COc1nc(C)c(Nc2nc(Cl)cn([C@H](COC(=O)Nc3cccnc3)C3CC3)c2=O)cc1C	8.00	remaining at 10 min [1]: 36%; remaining at 10 min [4]: 35%
COc1ccc(NC(=O)OC[C@H](C2CC2)n2cc(Cl)nc(Nc3cc(C)c(OC)nc3C)c2=O)c(C)n1	8.04	
COc1nc(C)c(Nc2nc(Cl)cn([C@H](COc3cc(Br)ccn3)C3CC3)c2=O)cc1C	8.82	
COc1nc(C)c(Nc2nc(Cl)cn([C@H](COc3cc(C#N)ccn3)C3CC3)c2=O)cc1C	8.17	
COc1nc(C)c(Nc2nc(Cl)cn([C@H](COC(=O)c3ccncc3)C3CC3)c2=O)cc1C	8.31	
COc1nc(C)c(Nc2nc(Cl)cn([C@H](COC(=O)Nc3ccc(Cl)cc3Cl)C3CC3)c2=O)cc1C	8.77	
COc1nc(C)c(Nc2nc(Cl)cn([C@H](COc3ccc(C(F)(F)F)cn3)C3CC3)c2=O)cc1C	8.80	
Cc1cc(Nc2nc(Cl)cn([C@H](COC(=O)Nc3cccnc3)C3CC3)c2=O)c(C)nc1OC(F)F	8.72	remaining at 10 min [1]: 71%; remaining at 10 min [4]: 52%
COc1nc(C)c(Nc2nc(Cl)cn([C@H](COC(=O)Nc3ccccc3Cl)C3CC3)c2=O)cc1C	8.82	
COc1nc(C)c(Nc2nc(Cl)cn([C@H](COc3ccc(C#N)cn3)C3CC3)c2=O)cc1C	8.11	
COc1nc(C)c(Nc2nc(Cl)cn([C@H](COC(=O)Nc3cccc(C#N)c3)C3CC3)c2=O)cc1C	8.89	
CCNC(=O)OC[C@H](C1CC1)n1cc(Cl)nc(Nc2cc(C)c(OC)nc2C)c1=O	7.85	

Second part, led by results:

pIC50 [5]	SMILES	further results
7.06	COc1nc(C)c(Nc2nc(Cl)cn([C@H](CO)C3CC3)c2=O)cc1C	
9.54	COC[C@H](C1CC1)n1cc(Cl)nc(Nc2cc(C)c(OC(F)F)nc2C)c1=O	
8.28	COc1nc(C)c(Nc2nc(Cl)cn([C@H](COC(C)=O)C3CC3)c2=O)cc1C	
8.77	COc1nc(C)c(Nc2nc(Cl)cn([C@H](COC(=O)Nc3cc(Cl)cc(Cl)c3)C3CC3)c2=O)cc1C	
8.80	COc1nc(C)c(Nc2nc(Cl)cn([C@H](COC(=O)Nc3ccc(Cl)cc3)C3CC3)c2=O)cc1C	
8.28	COc1nc(C)c(Nc2nc(Cl)cn([C@H](COC(=O)c3cccnc3)C3CC3)c2=O)cc1C	
7.17	COc1nc(C)c(Nc2nc(Cl)cn([C@H](COC(=O)c3ccccn3)C3CC3)c2=O)cc1C	
8.82	COc1nc(C)c(Nc2nc(Cl)cn([C@H](COC(=O)Nc3ccccc3)C3CC3)c2=O)cc1C	remaining at 10 min [1]: 32%; remaining at 10 min [4]: 33%
8.82	COc1nc(C)c(Nc2nc(Cl)cn([C@H](COC(=O)c3ccccc3)C3CC3)c2=O)cc1C	
8.00	CCCNC(=O)OC[C@H](C1CC1)n1cc(Cl)nc(Nc2cc(C)c(OC)nc2C)c1=O	
